In patent US10213429B2, “Imidazo-pyrazinyl derivatives useful as soluble guanylate cyclase activators” (Merck Sharp & Dohme Corp., priority 2015, dated 2019):

How the values were obtained:
[1] = test system: Spontaneously hypertensive rats (SHR); experiment: Acute Efficacy in Spontaneously Hypertensive Rats (SHR), telemetry blood pressure; type: in vivo, rat; conditions: SHR male
Excerpt: Acute Efficacy in Spontaneously Hypertensive Rats (SHR)
Spontaneously hypertensive rats (SHR, male, Charles River) were implanted with DSI TA11PA-C40 telemetry device (Data Sciences, Inc., St. Paul, Minn.) under isoflurane or ketamine/metomidine anesthesia. The telemetry unit catheter was inserted into the descending aorta via the femoral artery and the telemetry device was implanted subcutaneously in the left flank area. Animals were allowed to recover from surgery for 14 days before the start of any studies. Blood pressure, heart rate, and activity signals from conscious, freely moving rats were recorded continuously for 30 seconds every 10 minutes. On the day prior to administration of compound, a single oral dose of vehicle (10% transcutol/20% Cremophor/70% water) was administered to all animals to establish baseline control data. The blood pressure lowering efficacy of compound (PO) or vehicle was evaluated following a single oral gavage. Data were collected as hourly averages, and changes in blood pressure were calculated by subtracting control baseline data on an hourly basis. Animals were maintained on normal diet with a 12 hour light-dark cycle.
Maximum peak decreases of systolic blood pressure (SBP) in SHR at a particular P.O. dose (mpk milligrams per kilogram) for the following representative compounds are provided. • Category A=SBP in SHRs<20 mmHg; Category B=SBP in SHRs 20-40 mmHg; • Category C=SBP in SHRs>40 mmHg

[2] = target: T1, sGC α1/β1 heterodimer (Homo sapiens, UniProt Q02108+Q02153); experiment: Cell-Based sGC Functional Assay (CASA Assay), cGMP by HTRF in CHO-K1/sGC cells; conditions: for Emax: CHO-K1, percent activation relative to maximum cGMP production of Compound A (= 100%), read-out: % Act.; for EC50: cGMP production, 1 hr at 37° C., 4P fit, presence or absence of 1 μM DETA-NO not given, read-out: IP (nM) (inflection point)
T1 construct: expressed in transfected cells; host or cells: CHO-K1 (clone #7, CHO-K1/sGC)
T1 sequence (Q02108 1-690): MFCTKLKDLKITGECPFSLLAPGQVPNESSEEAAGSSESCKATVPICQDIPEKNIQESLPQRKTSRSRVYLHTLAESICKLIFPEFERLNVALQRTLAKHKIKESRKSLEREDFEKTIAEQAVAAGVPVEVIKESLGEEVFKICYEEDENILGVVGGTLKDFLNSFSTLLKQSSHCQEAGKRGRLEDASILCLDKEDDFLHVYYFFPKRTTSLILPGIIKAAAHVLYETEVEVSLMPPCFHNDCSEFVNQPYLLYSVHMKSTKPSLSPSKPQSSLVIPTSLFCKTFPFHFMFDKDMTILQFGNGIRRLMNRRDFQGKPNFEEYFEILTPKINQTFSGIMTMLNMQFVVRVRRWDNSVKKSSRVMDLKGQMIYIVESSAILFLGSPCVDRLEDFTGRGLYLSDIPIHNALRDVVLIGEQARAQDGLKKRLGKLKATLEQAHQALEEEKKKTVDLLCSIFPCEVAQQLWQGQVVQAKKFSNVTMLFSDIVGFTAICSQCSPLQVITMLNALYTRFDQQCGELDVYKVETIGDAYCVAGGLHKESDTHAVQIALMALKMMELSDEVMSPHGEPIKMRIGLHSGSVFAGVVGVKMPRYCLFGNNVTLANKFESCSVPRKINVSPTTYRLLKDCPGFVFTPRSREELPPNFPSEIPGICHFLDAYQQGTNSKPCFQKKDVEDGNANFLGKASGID
T1 sequence (Q02153 1-619): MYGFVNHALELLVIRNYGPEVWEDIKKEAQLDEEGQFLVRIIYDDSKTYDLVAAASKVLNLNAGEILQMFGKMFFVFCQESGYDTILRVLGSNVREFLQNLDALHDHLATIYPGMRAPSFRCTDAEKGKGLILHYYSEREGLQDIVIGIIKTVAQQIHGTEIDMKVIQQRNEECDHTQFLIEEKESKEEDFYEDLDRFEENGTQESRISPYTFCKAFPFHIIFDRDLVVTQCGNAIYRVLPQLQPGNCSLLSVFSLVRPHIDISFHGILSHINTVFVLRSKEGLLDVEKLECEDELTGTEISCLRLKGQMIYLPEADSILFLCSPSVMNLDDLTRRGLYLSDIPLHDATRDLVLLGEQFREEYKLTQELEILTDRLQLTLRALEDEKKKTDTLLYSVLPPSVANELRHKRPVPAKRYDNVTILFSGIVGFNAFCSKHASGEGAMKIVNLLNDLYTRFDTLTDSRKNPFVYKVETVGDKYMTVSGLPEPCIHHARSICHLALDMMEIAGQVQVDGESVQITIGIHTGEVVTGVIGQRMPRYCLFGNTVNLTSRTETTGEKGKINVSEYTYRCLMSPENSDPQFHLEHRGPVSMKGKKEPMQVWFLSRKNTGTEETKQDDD
Outline: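 CHO-K1 cells stably expressing human sGC α1/β1, in EBSS buffer with 5 mM MgCl2, 10 mM HEPES, 0.05% BSA and 0.5 mM IBMX, incubated with compound (2.5% DMSO) ± 1 μM DETA-NO, 1 h, 37 °C. Intracellular cGMP read by HTRF; activity as % of reference activator maximum, IP from 4-parameter fit.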

Row | SMILES | Emax [2] | EC50 [2] | Cat. (maximum peak decrease of systolic blood pressure (SBP) in SHR) ([1]; single oral dose 3.0 mpk P.O.) | Cat. (maximum peak decrease of systolic blood pressure (SBP) in SHR) ([1]; single oral dose 0.3 mpk P.O.) | Cat. (maximum peak decrease of systolic blood pressure (SBP) in SHR) ([1]; single oral dose 1.0 mpk P.O.) | Cat. (maximum peak decrease of systolic blood pressure (SBP) in SHR) ([1]; single oral dose 2.0 mpk P.O.)
1 | CC(C)Cc1nc(-c2ncc3c(n2)NC(=O)C3(C)c2ccc(Cl)cn2)cn2ccnc12 (stereo not drawn) [Example 41A, 5-(5-chloropyridin-2-yl)-2-(8-isobutylimidazo[1,2-a]pyrazin-6-yl)-5-methyl-5H-pyrrolo[2,3-d]pyrimidin-6(7H)-one] | 111% | 235 nM | A (Category A=SBP in SHRs<20 mmHg) | – | – | –
2 | O=C1Nc2nc(-c3cn4ccnc4c(CCCC(F)(F)F)n3)ncc2C1(c1ccc(F)c(F)c1)C1CC1 (stereo not drawn) [Example 44A, 5-cyclopropyl-5-(3,4-difluorophenyl)-2-(8-(4,4,4-trifluorobutyl)imidazo[1,2-a]pyrazin-6-yl)-5H-pyrrolo[2,3-d]pyrimidin-6(7H)-one] | 150% | 114 nM | – | – | B (Category B=SBP in SHRs 20-40 mmHg) | –
3 | O=C1Nc2nc(-c3cn4ccnc4c(CCCC(F)(F)F)n3)ncc2C1(c1ccc(Cl)cc1)C1CC1 (stereo not drawn) [Example 50B, 5-(4-chlorophenyl)-5-cyclopropyl-2-(8-(4,4,4-trifluorobutyl)imidazo[1,2-a]pyrazin-6-yl)-5H-pyrrolo[2,3-d]pyrimidin-6(7H)-one] | 155% | 63 nM | – | – | B (Category B=SBP in SHRs 20-40 mmHg) | –
4 | O=C1Nc2nc(-c3cn4ccnc4c(CCCC(F)(F)F)n3)ncc2C1(c1ccc(OC(F)(F)F)cc1)C1CC1 (stereo not drawn) [Example 52A, 5-cyclopropyl-2-(8-(4,4,4-trifluorobutyl)imidazo[1,2-a]pyrazin-6-yl)-5-(4-(trifluoromethoxy)phenyl)-5H-pyrrolo[2,3-d]pyrimidin-6(7H)-one] | 155% | 791 nM | A (Category A=SBP in SHRs<20 mmHg) | – | – | –
5 | CCCCc1nc(-c2ncc3c(n2)NC(=O)C3(c2ccc(Cl)cn2)C2CC2)cn2ccnc12 (stereo not drawn) [Example 55A, 2-(8-butylimidazo[1,2-a]pyrazin-6-yl)-5-(5-chloropyridin-2-yl)-5-cyclopropyl-5H-pyrrolo[2,3-d]pyrimidin-6(7H)-one] | 188% | 73 nM | – | – | – | B (Category B=SBP in SHRs 20-40 mmHg)
6 | CC1(c2ccc(Cl)c(F)c2)C(=O)Nc2nc(-c3cn4ccnc4c(CCC(F)(F)F)n3)ncc21 (stereo not drawn) [Example 56B, 5-(4-chloro-3-fluorophenyl)-5-methyl-2-(8-(3,3,3-trifluoropropyl)imidazo[1,2-a]pyrazin-6-yl)-5H-pyrrolo[2,3-d]pyrimidin-6(7H)-one] | 95% | 70 nM | – | – | A (Category A=SBP in SHRs<20 mmHg) | –
7 | CC1(c2ccc(F)cn2)C(=O)Nc2nc(-c3cn4ccnc4c(CCC(F)(F)C(F)(F)F)n3)ncc21 (stereo not drawn) [Example 62B, 5-(5-fluoropyridin-2-yl)-5-methyl-2-(8-(3,3,4,4,4-pentafluorobutyl)imidazo[1,2-a]pyrazin-6-yl)-5H-pyrrolo[2,3-d]pyrimidin-6(7H)-one] | 98% | 104 nM | – | – | B (Category B=SBP in SHRs 20-40 mmHg) | –
8 | CC1(c2ccc(F)cn2)C(=O)Nc2nc(-c3cn4ccnc4c(CC4CCC4)n3)ncc21 (stereo not drawn) [Example 65B, 2-(8-(cyclobutylmethyl)imidazo[1,2-a]pyrazin-6-yl)-5-(5-fluoropyridin-2-yl)-5-methyl-5H-pyrrolo[2,3-d]pyrimidin-6(7H)-one] | 102% | 71 nM | – | B (Category B=SBP in SHRs 20-40 mmHg) | – | –
9 | CC1(c2ccc(F)cn2)C(=O)Nc2nc(-c3cn4ccnc4c(CCCC(F)(F)F)n3)ncc21 (stereo not drawn) [Example 66B, 5-(5-fluoropyridin-2-yl)-5-methyl-2-(8-(4,4,4-trifluorobutyl)imidazo[1,2-a]pyrazin-6-yl)-5H-pyrrolo[2,3-d]pyrimidin-6(7H)-one] | 125% | 217 nM | – | – | A (Category A=SBP in SHRs<20 mmHg) | –
10 | CCCCc1nc(-c2ncc3c(n2)NC(=O)C3(C)c2ccc(F)cc2)cn2ccnc12 (stereo not drawn) [Example 78A, 2-(8-Butylimidazo[1,2-a]pyrazin-6-yl)-5-(4-fluorophenyl)-5-methyl-5H-pyrrolo[2,3-d]pyrimidin-6(7H)-one] | 121% | 50 nM | – | – | C (Category C=SBP in SHRs>40 mmHg) | –

The next lines start with results.

Row | Emax [2] | EC50 [2] | SMILES | Cat. (maximum peak decrease of systolic blood pressure (SBP) in SHR) ([1]; single oral dose 3.0 mpk P.O.) | Cat. (maximum peak decrease of systolic blood pressure (SBP) in SHR) ([1]; single oral dose 0.3 mpk P.O.) | Cat. (maximum peak decrease of systolic blood pressure (SBP) in SHR) ([1]; single oral dose 1.0 mpk P.O.) | Cat. (maximum peak decrease of systolic blood pressure (SBP) in SHR) ([1]; single oral dose 2.0 mpk P.O.)
11 | 124% | 4 nM | CC1(c2ccc(Cl)cn2)C(=O)Nc2nc(-c3cn4ccnc4c(Cc4ccc(F)cc4)n3)ncc21 (stereo not drawn) [Example 42A, 5-(5-chloropyridin-2-yl)-2-(8-(4-fluorobenzyl)imidazo[1,2-a]pyrazin-6-yl)-5-methyl-5H-pyrrolo[2,3-d]pyrimidin-6(7H)-one] | – | B (Category B=SBP in SHRs 20-40 mmHg) | – | –
12 | 157% | 24 nM | CCCCc1nc(-c2ncc3c(n2)NC(=O)C3(c2ccc(Cl)cc2)C2CC2)cn2ccnc12 (stereo not drawn) [Example 49B, 2-(8-butylimidazo[1,2-a]pyrazin-6-yl)-5-(4-chlorophenyl)-5-cyclopropyl-5H-pyrrolo[2,3-d]pyrimidin-6(7H)-one] | – | – | B (Category B=SBP in SHRs 20-40 mmHg) | –
13 | 137% | 21 nM | O=C1Nc2nc(-c3cn4ccnc4c(CCCC(F)(F)F)n3)ncc2C1(c1ccc(F)cn1)C1CC1 (stereo not drawn) [Example 54A, 5-cyclopropyl-5-(5-fluoropyridin-2-yl)-2-(8-(4,4,4-trifluorobutyl)imidazo[1,2-a]pyrazin-6-yl)-5H-pyrrolo[2,3-d]pyrimidin-6(7H)-one] | – | – | A (Category A=SBP in SHRs<20 mmHg) | –
14 | 91% | 68 nM | CC1(c2ccc(Cl)cn2)C(=O)Nc2nc(-c3cn4ccnc4c(CCCC(F)(F)F)n3)ncc21 (stereo not drawn) [Example 59A, 5-(5-chloropyridin-2-yl)-5-methyl-2-(8-(4,4,4-trifluorobutyl)imidazo[1,2-a]pyrazin-6-yl)-5H-pyrrolo[2,3-d]pyrimidin-6(7H)-one] | – | – | B (Category B=SBP in SHRs 20-40 mmHg) | –
15 | 141% | 35 nM | CC1(c2ccc(F)cc2)C(=O)Nc2nc(-c3cn4ccnc4c(CCCC(F)(F)F)n3)ncc21 (stereo not drawn) [Example 64A, 5-(4-fluorophenyl)-5-methyl-2-(8-(4,4,4-trifluorobutyl)imidazo[1,2-a]pyrazin-6-yl)-5H-pyrrolo[2,3-d]pyrimidin-6(7H)-one] | – | B (Category B=SBP in SHRs 20-40 mmHg) | – | –
